Results reported in patent publication US10292912B2, “Personal care compositions” (Colgate-Palmolive Company, priority 2015, dated 2019).

Assay: Preparation and aging of 3% SnCl2.2H2O solutions with TSPP or TKPP
Format: physicochemical
Settings: room temperature
Protocol: Solutions are prepared by dissolving TSPP in deionized water (mixing under heat if necessary) and then adding 0.6 g of SnCl2.2H2O to make 20-gram solutions.
A 3% SnCl2.2H2O solution is used as a control.
Solutions are prepared by dissolving TKPP in deionized water (mixing under heat if necessary) and then adding 0.6 g SnCl2.2H2O to make 20-g solutions.

For `O.O.[Cl][Sn][Cl]` [3% SnCl2.2H2O solution, SnCl2.2H2O], the “appearance after aging overnight” value was “form a cloudy precipitate that settles”.
